Measurements published in patent publication US8507551B2, “Antimicrobial therapy for bacterial infections” (priority 2005, dated 2013).

What was measured:
WT and ΔCrtM S. aureus = test: Protease and cathelicidin sensitivity assays; assay type: cell-based, Staphylococcus aureus; conditions: WT vs ΔCrtM S. aureus, 2 h at 37° C., FIG. 6d, e
Experimental: Human neutrophil elastase, and cathepsin G were purchased from Calbiochem. The antimicrobial peptide mCRAMP was synthesized at the Louisiana State University Protein Facility (Martha Juban, Director). S. aureus cultures were diluted (1:2,000) in 10 mM phosphate buffer (pH 7.2)+0.5% LB to 1×10^6 CFU/ml. Ninety μl of this bacterial suspension was added to replicate wells in a 96-well plate. Dilutions of the cathepsin G (20 and 100 mU/ml), human neutrophil elastase (12.5 and 50 μg/ml), and murine CRAMP (0.4-3 μM) were prepared in 10 mM phosphate buffer and added to wells in 10 μl volume; 10 mM phosphate buffer alone was used as a negative control. After 2 h incubation at 37° C., 25 μl aliquots of each well were serially diluted in PBS and plated on THB. Each experiment was performed in duplicate and repeated.

[1] = tested on: WT and ΔCrtM S. aureus in human neutrophils; conditions: FIG. 2d
Experimental: Neutrophils were purified from healthy human volunteers using a Histopaque gradient (Sigma) per manufacturer's directions. Intracellular survival assays were performed as follows. Bacterial cultures were washed twice in PBS, diluted to a concentration of 4.5×10^6 cfu in 100 μl RPMI+10% FCS, and mixed with 3×10^5 neutrophils in the same media (multiplicity of infection, MOI=15:1), centrifuged at 700×g for 5 min, then incubated at 37° C. in a 5% CO2 incubator. Gentamicin (Gibco) (final concentration 400 μg/ml for S. aureus and 100 μg/ml for S. pyogenes) was added after 10 min to kill extracellular bacteria. At specified time points, the contents of sample wells were withdrawn, centrifuged to pellet the neutrophils, and washed to remove the antibiotic medium. Neutrophils were then lysed in 0.02% triton-X, and cfu calculated by plating on THA. Several assays were repeated with addition of a step involving preincubation of the bacterial inoculum with 10% autologous human serum for 15 min on ice.

[2] = tested on: WT and ΔCrtM S. aureus in mouse blood; conditions: FIG. 6c
Experimental: Bacteria were washed twice in PBS, diluted to an inoculum of 10^4 cfu in 25 μl PBS, and mixed with 75 μl of freshly drawn human or mouse blood in heparinized tubes. The tubes were incubated at 37° C. for 4 h with agitation, at which time dilutions were plated on THA for enumeration of surviving cfu.

WT strain of S. aureus [3] = test: Pigment production of S. aureus grown in the presence of the agent; assay type: cell-based, Staphylococcus aureus; conditions: FIG. 4a
Experimental: (§1) Wild-type and ΔCrtM mutant S. aureus were cultured in the presence or absence of SKF 525-A at the indicated concentrations. Depicted are the observed effects on A) pigmentation phenotype, B) singlet oxygen susceptibility, and C) survival in murine whole blood. Results shown are representative of at least three experiments.
Wild-type S. aureus strain (Pig1), isolated from the skin of a child with atopic dermatitis. Streptococcus pyogenes strain 5448 is a well-characterized serotype M1T1 clinical isolate^18. CD1 and C57Bl/6 mice were purchased from Charles River. The gp91^Phox−/− mice were bred at the Veteran's Administration Medical Center, San Diego and maintained on trimethoprim/sulfamethoxazole prophylaxis until 3 d prior to experiments. S. aureus and S. pyogenes were propagated in Todd-Hewitt broth (THB) or on THB agar (Difco, Detroit, Mich.). Unless otherwise indicated, all experiments were performed with bacteria derived from S. aureus 36-48 h stationary phase cultures or S. pyogenes 24 h stationary phase cultures, a point when pigmentation phenotypes were readily apparent.
Stationary phase (48 h) cultures of WT S. aureus Pig1 and its isogenic ΔCrtM mutant were subjected to methanol extraction. The absorbance profile of the extracts was measured with a MBA 2000 spectrophotometer (Perkin Elmer). […]

WT S. aureus [4] = test: Singlet oxygen susceptibility assay (methylene blue and light), WT strain; assay type: cell-based, Staphylococcus aureus; conditions: WT S. aureus cultured with SKF 525-A, FIG. 4b
Experimental: as §1
(§2) Tests for susceptibility to oxidants were performed either in PBS (S. aureus) or THB (S. pyogenes). Hydrogen peroxide (H2O2) was added to 1.5% final concentration, […] bacteria incubated at 37° C. for 1 h, then 1,000 U/ml of catalase (Sigma) added to quench residual H2O2. […] For the singlet oxygen assay, 10^8 S. aureus or 4×10^8 S. pyogenes were incubated at 37° C. in individual wells of a 24-well culture plate in the presence or absence of 1-6 μg/ml methylene blue and situated exactly 10 cm from a 100-watt light source. Bacterial viability was assessed after 1-3 h by plating dilutions on THA.
(§3) Given the protective effect provided to the bacteria by the golden yellow pigments, a pharmacologic agent that inhibits carotenogenesis might render S. aureus more susceptible to immune clearance.

ΔCrtM mutant S. aureus [5] = test: Singlet oxygen susceptibility assay (methylene blue and light), ΔCrtM mutant control; assay type: cell-based, Staphylococcus aureus; conditions: ΔCrtM mutant exposed to SKF 525-A, FIG. 4b
Experimental: as §1, §2, §3

WT S. aureus [6] = test: Whole blood killing assay, WT strain; assay type: cell-based, Staphylococcus aureus; conditions: WT S. aureus cultured with SKF 525-A, FIG. 4c
Experimental: Wild-type and ΔCrtM mutant S. aureus were cultured in the presence or absence of SKF 525-A at the indicated concentrations. […] Results shown are representative of at least three experiments.
as §3

ΔCrtM mutant S. aureus [7] = test: Whole blood killing assay, ΔCrtM mutant control; assay type: cell-based, Staphylococcus aureus; conditions: ΔCrtM mutant exposed to SKF 525-A, FIG. 4c
Experimental: as §1, §3

WT strain of S. aureus [8] = conditions: earlier report; moderate residual accumulation of δ carotenoid intermediate noted; cited from earlier work

mCRAMP: murine cathelicidin antimicrobial peptide, synthesized at Louisiana State University Protein Facility (ISRLAGLLRKGGEKIGEKLKKIGQKIKNFFQKLVPQPE; Cathelin-related antimicrobial peptide; UniProt P51437 135-172, looked up)
susceptibility of S. aureus to antimicrobial action (WT and ΔCrtM S. aureus): equally susceptible

c1ccc2c(c1)[I+]c1ccccc1-2 [DPI, diphenyleneiodonium]
survival of WT and ΔCrtM S. aureus in human neutrophils when oxidative burst inhibited [1]: survived equally well
survival of WT and ΔCrtM S. aureus in mouse blood when oxidative burst inhibited [2]: survived equally well

CCCC(C(=O)OCCN(CC)CC)(c1ccccc1)c1ccccc1 [SKF 525-A, 2-diethylaminoethyl-2,2-diphenyl-valerate]
pigment production (WT strain of S. aureus [3]): dose-dependent decrease
susceptibility to singlet oxygen killing (WT S. aureus [4]): dose-dependent increase
effect on oxidant susceptibility (ΔCrtM mutant S. aureus [5]): no significant effects
ability to survive in human whole blood (WT S. aureus [6]): decrease
effect on blood survival (ΔCrtM mutant S. aureus [7]): no significant effects
pigment formation in S. aureus (previously shown) (WT strain of S. aureus [8]): inhibit pigment formation

human neutrophil elastase: granule protease purchased from Calbiochem
susceptibility of S. aureus to antimicrobial action (WT and ΔCrtM S. aureus): resistant

cathepsin G: granule protease purchased from Calbiochem
susceptibility of S. aureus to antimicrobial action (WT and ΔCrtM S. aureus): no difference
